We go through seven compounds from article PMC1977912 (British Journal of Cancer, 1992).

In assay [1] the test system is AR4-2J cells. Put plainly: Reversal by exogenous gastrin of antagonist-induced inhibition of AR4-2J proliferation. Format: cell-based, rat. The settings on record: 5 x 10^-7 M gastrin added 2 h before the antagonist at its growth IC50.
Assay [2] has as its system AR4-2J cells. As to the kind of experiment: Inhibition of unsynchronised AR4-2J cell proliferation by gastrin/CCK receptor antagonists (MTT assay, direct cell counts). The settings on record: Rattus norvegicus, AR-42J, 96 h, read-out: half maximal inhibitory concentration, AR4-2J proliferation. Format: cell-based.
Assay [3] has as its target T1, gastrin/CCK-B receptors (Rattus norvegicus, UniProt P30553).
T1 construct: AR4-2J cells were harvested, washed three times with Eagle's modified essential medium; host or cells: AR4-2J rat pancreatic acinar tumour cells (intact cells)
T1 sequence (P30553 1-452): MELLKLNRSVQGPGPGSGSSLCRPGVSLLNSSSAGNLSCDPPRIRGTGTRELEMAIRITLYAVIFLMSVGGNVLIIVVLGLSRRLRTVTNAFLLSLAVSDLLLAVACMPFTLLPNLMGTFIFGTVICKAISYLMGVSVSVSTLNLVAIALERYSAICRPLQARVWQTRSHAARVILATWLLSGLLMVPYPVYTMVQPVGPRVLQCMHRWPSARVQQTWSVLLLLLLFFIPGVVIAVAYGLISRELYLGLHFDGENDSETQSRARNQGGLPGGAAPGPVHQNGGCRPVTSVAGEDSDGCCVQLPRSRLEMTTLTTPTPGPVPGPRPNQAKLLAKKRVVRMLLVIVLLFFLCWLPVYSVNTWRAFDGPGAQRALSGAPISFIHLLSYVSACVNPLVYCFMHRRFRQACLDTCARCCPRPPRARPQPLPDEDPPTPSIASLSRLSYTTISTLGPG
Put plainly: Displacement of 125I-hG17-1 binding to AR4-2J cells. The settings on record: read-out: IC50 for displacing 125I-hG17-1 binding.

For assay [4], the system named is HT-29 cells. Put plainly: HT-29 cell proliferation (MTT assay). Format: cell-based, human.
Assay [5] concerns AR4-2J cells. Put plainly: Effect of exogenous gastrin on AR4-2J proliferation in serum-free medium (MTT assay). The class given is cell-based, rat. Particulars: up to 5 x 10^-6 M.

“Also recorded” adds a separate entry of the source. Like-named read-outs stand apart in the source and are kept apart here.

With `CCCCCN(CCCOC)C(=O)C(CCC(=O)O)NC(=O)c1ccc(Cl)c(Cl)c1` (racemic) [loxiglumide, D,L-4-(3,4-di-chlorobenzoylamino) -5-(N-3-methoxypropylpentylamino)-5-oxo-pentanoic acid], the “effect of prior addition of gastrin on the inhibition of cell growth” value (“effect … on the inhibition of cell growth” below) in assay [1] was “partially reversed”.
For the compound `CCCN(CCC)C(=O)C(CCC(=O)O)NC(=O)c1ccccc1` (racemic) [proglumide, D,L-4-benzamido-N,N-di-n-propylgluta-ramic acid], the IC50 was found to be 3000 µM in assay [2] (4 day incubation, text statement of range) and 1300 µM in assay [3]. In addition, in assay [1], the “effect … on the inhibition of cell growth” value is “partially reversed”.
For the compound `CCCCCN(CCCCC)C(=O)C(CCC(=O)O)NC(=O)c1ccc(Cl)c(Cl)c1` (racemic) [lorglumide, D, L-4-(3,4-dichlorobenzoylamino)-5-(di-n-pentylamino)-5-oxo-pentanoic acid], in assay [1], the “effect … on the inhibition of cell growth” value is given as “partially reversed”.
For `Cc1cccc(NC(=O)N[C@@H]2N=C(c3ccccc3)c3ccccc3N(C)C2=O)c1` [L-365,260, 3R(+)-N-(2,3-dihydro-1-methyl-2-oxo-5-phenyl-1H-1 ,4-benzodiazepin-3-yl) -N'-(3-methylphenyl)urea], the “effect … on the inhibition of cell growth” value in assay [1] is listed as “not reversed; also recorded: not significantly effected”.
As for `O=C(N[C@@H](Cc1c[nH]c2ccccc12)C(=O)O)c1ccc(Cl)cc1` [benzotript, N-p-chlorobenzoyl-L- tryptophan], in assay [3], the IC50 came to 260 µM. The “effect … on the inhibition of cell growth” value in assay [1] is “partially reversed”.
For the compound gastrin, in assay [4], the “effect on HT-29 proliferation” value is on record as “neither exogenous gastrin nor an anti-gastrin Ig preparation effected proliferation”. Further, the “effect on proliferation of asynchronous AR4-2J cells” value in assay [5] is on record as “no significant effect”.
`CN1C(=O)[C@@H](NC(=O)c2cc3ccccc3[nH]2)N=C(c2ccccc2)c2ccccc21` [devazepide, 3S (- )-N-(2,3-dihydro-l-methyl-2-oxo-5-phenyl-1 H-1,4-benzodiazepine-3-yl) -1H-indole-2-carboxamide]: the IC50 in assay [2] worked out at 17 µM. The “effect … on the inhibition of cell growth” value in assay [1] is reported as “not reversed; also recorded: not significantly effected”.
